Results taken from PMC11536634, “Discovering a novel dual specificity tyrosine-phosphorylation-regulated kinase 1A (DYRK1A) inhibitor and its impact on tau phosphorylation and amyloid-β formation” (Journal of Enzyme Inhibition and Medicinal Chemistry, 2024).

Legend:
Type in all cases: biochemical
[1] = molecular target: fibroblast growth factor receptor 1 (FGFR1) (Homo sapiens, UniProt P11362); test: kinase panel ([…] human kinases), […] inhibition at […]
[2] = molecular target: cyclin-dependent kinase 2 (CDK2) (Homo sapiens, UniProt P24941); test: kinase panel ([…] human kinases), […] inhibition at […]
[3] = molecular target: DYRK1A (Homo sapiens, UniProt Q13627); test: cell-free Z'-LYTE FRET kinase assay, dose-response; ATP competition
[4] = molecular target: CDC-like kinase 2 (CLK2) (Homo sapiens, UniProt P49760); test: kinase panel ([…] human kinases), […] inhibition at […]
Sequence of CDC-like kinase 2 (CLK2) (P49760 whole entry): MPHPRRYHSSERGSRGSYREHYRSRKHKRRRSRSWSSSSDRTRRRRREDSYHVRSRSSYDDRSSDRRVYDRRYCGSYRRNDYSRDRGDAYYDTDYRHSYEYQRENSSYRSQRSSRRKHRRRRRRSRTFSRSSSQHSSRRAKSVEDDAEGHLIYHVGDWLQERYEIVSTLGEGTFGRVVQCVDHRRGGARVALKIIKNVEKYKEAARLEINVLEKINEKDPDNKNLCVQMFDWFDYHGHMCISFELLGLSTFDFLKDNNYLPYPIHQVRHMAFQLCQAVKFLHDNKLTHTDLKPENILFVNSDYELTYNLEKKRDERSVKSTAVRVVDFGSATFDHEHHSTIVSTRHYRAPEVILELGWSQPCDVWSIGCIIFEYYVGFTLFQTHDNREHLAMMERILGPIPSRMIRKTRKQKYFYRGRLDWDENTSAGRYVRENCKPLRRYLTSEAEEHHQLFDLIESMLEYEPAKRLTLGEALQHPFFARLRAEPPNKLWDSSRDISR

Sequence of fibroblast growth factor receptor 1 (FGFR1) (P11362 22-822): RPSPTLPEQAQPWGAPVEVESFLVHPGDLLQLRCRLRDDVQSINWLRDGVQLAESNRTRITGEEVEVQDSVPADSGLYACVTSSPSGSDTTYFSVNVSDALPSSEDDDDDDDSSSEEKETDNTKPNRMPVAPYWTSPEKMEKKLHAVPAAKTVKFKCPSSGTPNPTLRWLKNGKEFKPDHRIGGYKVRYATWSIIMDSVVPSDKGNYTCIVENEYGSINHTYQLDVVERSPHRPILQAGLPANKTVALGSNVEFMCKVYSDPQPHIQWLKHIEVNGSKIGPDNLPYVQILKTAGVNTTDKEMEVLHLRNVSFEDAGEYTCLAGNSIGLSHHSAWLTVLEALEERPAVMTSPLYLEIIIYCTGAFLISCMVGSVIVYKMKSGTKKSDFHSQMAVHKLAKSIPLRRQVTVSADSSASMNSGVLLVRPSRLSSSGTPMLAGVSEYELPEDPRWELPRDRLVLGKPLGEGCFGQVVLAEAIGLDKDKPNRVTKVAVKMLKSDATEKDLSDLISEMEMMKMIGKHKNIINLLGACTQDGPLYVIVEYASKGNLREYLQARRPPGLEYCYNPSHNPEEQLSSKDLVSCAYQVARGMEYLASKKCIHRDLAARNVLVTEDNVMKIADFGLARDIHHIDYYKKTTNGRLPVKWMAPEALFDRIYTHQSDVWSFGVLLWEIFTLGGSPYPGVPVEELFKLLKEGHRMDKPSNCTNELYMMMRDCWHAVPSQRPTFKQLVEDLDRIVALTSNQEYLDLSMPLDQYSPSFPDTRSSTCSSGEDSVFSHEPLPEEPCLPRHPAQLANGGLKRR

`O=C1CC(c2c[nH]c3nccnc23)NN1` (stereo not shown) [compound 217908, NSC217908] was tested, and the “% inhibition at 3 μM” value [1] was 69, the “% inhibition at 3 μM” value [2] was 54 and the IC50 [3] was 949 nM. The “% inhibition at 3 μM” value [4] was 89.
